Columns and labels:
[1] = molecular target: biotinylated KRAS G12C protein (GMP-PNP loaded) and GST-tagged Ras binding domain of c-RAF (Homo sapiens, UniProt P01116, C118S/C51S/C80L/G12C); assay: RAS:RAF-RBD binding assay (TR-FRET); assay type: biochemical; details: 30-minute incubation with KRAS G12C, then RAF-RBD 60 minute
[2] = molecular target: Gppcp-bound recombinant K-Ras4B G12C mutant protein (amino acids 1-169, C51S/C80L/C118S) (Homo sapiens, UniProt P01116, C118S/C51S/C80L/G12C); assay: KRASG12C binding assay (LC-MS, compound binding rate); details: test compound final concentration 0.5 μM, 25° C., 1 hour
Summary of the method: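 Gppcp-bound K-Ras4B G12C (1-169; C51S/C80L/C118S), 50 nM in TBS with 0.1 mM TCEP, 0.25 mM MgCl2, 50 μM Gppcp, exposed to compound at 0.5 μM final for 1 h at 25 °C. Quenched with formic acid and analysed by intact-protein ESI LC-MS. Binding rate is the mono-adduct signal over total KRAS signal; graded A (≥80%) to E (<20%).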

[3] = molecular target: T1, interaction between recombinant K-Ras4B G12C mutant protein and cRAF RAS-binding domain (cRAF-RBD) (Homo sapiens, UniProt P01116, G12C); assay: Inhibitory activity on interaction between KRAS G12C and cRAF (Alpha technology); assay type: biochemical; details: GMPPNP-bound KRAS G12C incubated with compound at 25° C. for 1 hour, then cRAF-RBD; Alpha signal
T1 construct: made in house; host or cells: E. coli
Summary of the method: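 GMPPNP-loaded His-tagged KRAS G12C (aa 1-169, E. coli) preincubated with compound 1 h at 25° C in Tris pH 7.5, 100 mM NaCl, 1 mM MgCl2, TCEP, 0.1% Tween 20; cRAF-RBD (aa 50-132) added, 1.5 h RT, Alpha signal read. DMSO = 0%, GDP-bound KRAS = 100% inhibition; IC50 from dose titration fit.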

[4] = test system: MIA PaCa-2 cells; assay: Growth inhibition activity on KRAS-G12C mutant cell line (MIA PaCa-2), CellTiter-Glo 3D; assay type: cell-based, human; details: MIA PaCa-2, 3-day culture with compound
Summary of the method: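 Cells in RPMI1640 with 10% FBS were seeded in U-bottom plates and cultured 1 day at 37 °C, 5% CO2, then exposed to compound (0.2% DMSO final) for 3 more days. Viability read by CellTiter-Glo 3D luminescence; IC50 from growth inhibition relative to untreated wells.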

| Compound | IC50 [1] [µM] | binding rate [2] | IC50 [3] [µM] | other results |
| --- | --- | --- | --- | --- |
| Cc1nc2c(Cl)c(-c3cccn4c(C(=O)c5cc(F)c(NC(=O)/C=C/CNC6(C)CCOC6)c(F)c5)ccc34)c(C(F)(F)F)cc2n1C (single isomer, unassigned) [Example 131b, (E)-N-(4-(8-(4-chloro-1,2-dimethyl-6-(trifluoromethyl)-1H-benzo[d]imidazol-5-yl)indolizine-3-carbonyl)-2,6-difluorophenyl)-4-((3-methyltetrahydrofuran-3-yl)amino)but-2-enamide] | 0.0124 |  |  |  |
| CO[C@H]1CC[C@H](NC/C=C/C(=O)Nc2c(F)cc(C(=O)n3ccc4c(-c5c(C(F)(F)F)cc6c(nc(C)n6C)c5Cl)cccc43)cc2F)CC1 [Example 126, (E)-N-(4-(4-(4-chloro-1,2-dimethyl-6-(trifluoromethyl)-1H-benzo[d]imidazol-5-yl)-1H-indole-1-carbonyl)-2,6-difluorophenyl)-4-(((1r,4r)-4-methoxycyclohexyl)amino)but-2-enamide] | 0.0283 |  |  |  |
| CO[C@H]1CC[C@H](NC/C=C/C(=O)Nc2c(F)cc(C(=O)c3ccc4c(-c5cc6c(cc5C(F)(F)F)CCN(C)C6=O)cccn34)cc2F)CC1 [Example 121, (1r,4r)-N-((E)-4-((2,6-difluoro-4-(8-(2-methyl-1-oxo-6-(trifluoromethyl)-1,2,3,4-tetrahydroisoquinolin-7-yl)indolizine-3-carbonyl)phenyl)amino)-4-oxobut-2-en-1-yl)-4-methoxycyclohexan-1-aminium 2,2,2-trifluoroacetate] | 0.168 |  |  |  |
| COc1c(-c2cccn3c(C(=O)c4cc(F)c(NC(=O)/C=C/CN[C@H]5CC[C@H](OC)CC5)c(F)c4)ccc23)c(C(F)(F)F)cc2c1cnn2C (single isomer, unassigned) [Example 117, (E)-N-(2,6-difluoro-4-(8-(4-methoxy-1-methyl-6-(trifluoromethyl)-1H-indazol-5-yl)indolizine-3-carbonyl)phenyl)-4-(((1r,4r)-4-methoxycyclohexyl)amino)but-2-enamide] | 0.0565 |  |  |  |
| COc1c(-c2cccc3c2ccn3C(=O)c2cc(F)c(NC(=O)/C=C/CN[C@H]3CCOC3)c(F)c2)c(C(F)(F)F)cc2c1nc(C)n2C (single isomer, unassigned) [Example 116, mono(2,2,2-trifluoroacetate)] | 0.0148 |  |  |  |
| Cc1nc2c(Cl)c(-c3cccn4c(C(=O)c5cc(F)c(NC(=O)/C=C/CN6CCC[C@H]6CO)c(F)c5)ccc34)c(C(F)(F)F)cc2n1C [Example 130, mono(4-chloro-5-(3-(3,5-difluoro-4-((E)-4-((2S)-2-(hydroxymethyl)pyrrolidin-1-ium-1-yl)but-2-enamido)benzoyl)indolizin-8-yl)-1,2-dimethyl-6-(trifluoromethyl)-1H-benzo[d]imidazol-3-ium) mono(2,2,2-trifluoroacetate)] | 0.0959 |  |  |  |
| CO[C@H]1CC[C@H](NC/C=C/C(=O)Nc2c(F)cc(C(=O)c3ccc4c(-c5cc6ncccc6cc5C(F)(F)F)cccn34)cc2F)CC1 [Example 120, mono(7-(3-(3,5-difluoro-4-((E)-4-(((1r,4r)-4-methoxycyclohexyl)ammonio)but-2-enamido)benzoyl)indolizin-8-yl)-6-(trifluoromethyl)quinolin-1-ium) mono(2,2,2-trifluoroacetate)] | 0.482 |  |  |  |
| CO[C@H]1CC[C@H](NC/C=C/C(=O)Nc2c(F)cc(C(=O)c3ccc4c(-c5c(C(F)(F)F)cc6c(cnn6C)c5Cl)cccn34)cc2F)CC1 (single isomer, unassigned) [Example 118, (E)-N-(4-(8-(4-chloro-1-methyl-6-(trifluoromethyl)-1H-indazol-5-yl)indolizine-3-carbonyl)-2,6-difluorophenyl)-4-(((1r,4r)-4-methoxycyclohexyl)amino)but-2-enamide] | 0.461 |  |  |  |
| Cc1nc2c(Cl)c(-c3cccn4c(C(=O)c5cc(F)c(NC(=O)/C=C/CNC6CCC6(C)C)c(F)c5)ccc34)c(C(F)(F)F)cc2n1C (centres unmarked) [Example 127, mono((E)-4-chloro-5-(3-(4-(4-((2,2-dimethylcyclobutyl)ammonio)but-2-enamido)-3,5-difluorobenzoyl)indolizin-8-yl)-1,2-dimethyl-6-(trifluoromethyl)-1H-benzo[d]imidazol-3-ium) mono(2,2,2-trifluoroacetate)] | 0.403 |  |  |  |
| Cc1nc2c(Cl)c(-c3cccn4c(C(=O)c5cc(F)c(NC(=O)/C=C/CNC6(C)CCOC6)c(F)c5)ccc34)c(C(F)(F)F)cc2n1C (single isomer, unassigned) [Example 131a, (E)-N-(4-(8-(4-chloro-1,2-dimethyl-6-(trifluoromethyl)-1H-benzo[d]imidazol-5-yl)indolizine-3-carbonyl)-2,6-difluorophenyl)-4-((3-methyltetrahydrofuran-3-yl)amino)but-2-enamide] | 0.0134 |  |  |  |
| CO[C@H]1CC[C@H](NC/C=C/C(=O)Nc2c(F)cc(C(=O)c3ccc4c(-c5cc6c(=O)n(C)ccc6cc5C(F)(F)F)cccn34)cc2F)CC1 [Example 125, (1r,4r)-N-((E)-4-((2,6-difluoro-4-(8-(2-methyl-1-oxo-6-(trifluoromethyl)-1,2-dihydroisoquinolin-7-yl)indolizine-3-carbonyl)phenyl)amino)-4-oxobut-2-en-1-yl)-4-methoxycyclohexan-1-aminium 2,2,2-trifluoroacetate] | 0.398 |  |  |  |
| COc1c(-c2cccn3c(C(=O)c4cc(F)c(NC(=O)/C=C/CN[C@H]5CC[C@H](OC)CC5)c(F)c4)ccc23)c(C)cc2c1nc(C)n2C (single isomer, unassigned) [Example 39-1, (E)-N-(2,6-difluoro-4-(8-(4-methoxy-1,2,6-trimethyl-1H-benzo[d]imidazol-5-yl)indolizine-3-carbonyl)phenyl)-4-(((1r,4r)-4-methoxycyclohexyl)amino)but-2-enamide] |  | A (A binding rate of 80% or more is rated “A”) | 0.58 | IC50 [4]: 0.35 µM |
| CO[C@H]1CC[C@H](NC/C=C/C(=O)Nc2c(F)cc(C(=O)c3c[nH]c4c(-c5cc6nc(C)n(C)c6cc5C(F)(F)F)cccc34)cc2F)CC1 [Example 45, (E)-N-(4-(7-(1,2-dimethyl-6-(trifluoromethyl)-1H-benzo[d]imidazol-5-yl)-1H-indole-3-carbonyl)-2,6-difluorophenyl)-4-(((1r,4r)-4-methoxycyclohexyl)amino)but-2-enamide] |  | A (A binding rate of 80% or more is rated “A”) | 0.076 | IC50 ([4]; Homo sapiens, MIA PaCa-2, 72 h): 0.067 µM |
| CO[C@H]1CC[C@H](NC/C=C/C(=O)Nc2c(F)cc(C(=O)c3ccc4c(-c5c(C)cc6c(ncn6C)c5C)cccn34)cc2F)CC1 (single isomer, unassigned) [Example 34-2, (E)-N-(2,6-difluoro-4-(8-(1,4,6-trimethyl-1H-benzo[d]imidazol-5-yl)indolizine-3-carbonyl)phenyl)-4-(((1r,4r)-4-methoxycyclohexyl)amino)but-2-enamide] |  | B (a binding rate of 60% or more and less than 80% is rated “B”) | 0.2 | IC50 [4]: 0.31 µM |
| CCc1nc2c(-c3c(C(F)(F)F)cc4c(nc(C)n4C)c3OC)cccn2c1C(=O)c1cc(F)c(NC(=O)/C=C/CN[C@H]2CC[C@H](OC)CC2)c(F)c1 (single isomer, unassigned) [Example 102-1, (E)-N-(4-(2-ethyl-8-(4-methoxy-1,2-dimethyl-6-(trifluoromethyl)-1H-benzo[d]imidazol-5-yl)imidazo[1,2-a]pyridine-3-carbonyl)-2,6-difluorophenyl)-4-(((1r,4r)-4-methoxycyclohexyl)amino)but-2-enamide] |  | A (A binding rate of 80% or more is rated “A”) | 0.0572 | IC50 [4]: 0.0201 µM |
| Cn1cnc2cc(-c3cccn4c(C(=O)c5cc(F)c(NC(=O)/C=C/CNC6(C)CCOCC6)c(F)c5)ccc34)c(C(F)(F)F)cc21 [Example 11, (E)-N-(2,6-difluoro-4-(8-(1-methyl-6-(trifluoromethyl)-1H-benzo[d]imidazol-5-yl)indolizine-3-carbonyl)phenyl)-4-((4-methyltetrahydro-2H-pyran-4-yl)amino)but-2-enamide] |  | A (A binding rate of 80% or more is rated “A”) | 0.021 | IC50 ([4]; Homo sapiens, MIA PaCa-2, 72 h): 0.068 µM |
| CO[C@H]1CC[C@H](NC/C=C/C(=O)Nc2c(F)cc(C(=O)c3ccc4c(-c5c(Cl)cc6c(ncn6C)c5Cl)cccn34)cc2F)CC1 (single isomer, unassigned) [Example 15-1, (E)-N-(4-(8-(4,6-dichloro-1-methyl-1H-benzo[d]imidazol-5-yl)indolizine-3-carbonyl)-2,6-difluorophenyl)-4-(((1r,4r)-4-methoxycyclohexyl)amino)but-2-enamide] |  | A (A binding rate of 80% or more is rated “A”) | 0.042 | IC50 [4]: 0.046 µM |
